The structures appear in SMILES notation. Structures can show the parent of a compound that is named as a salt.

The target of one assay is T1, recominbant human tryptase, beta, from lung (Homo sapiens, UniProt P20231).
T1 construct: purchased Promega or Enzo Life Sciences G5631 or BML-SE418
T1 sequence (P20231 31-275): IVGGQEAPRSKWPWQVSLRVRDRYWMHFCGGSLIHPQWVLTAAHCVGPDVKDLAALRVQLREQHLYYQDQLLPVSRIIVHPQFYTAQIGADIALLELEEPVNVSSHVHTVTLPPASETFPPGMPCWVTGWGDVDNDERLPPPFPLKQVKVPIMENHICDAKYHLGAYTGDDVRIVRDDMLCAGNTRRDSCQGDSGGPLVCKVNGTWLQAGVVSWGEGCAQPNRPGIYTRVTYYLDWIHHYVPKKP
Nature of the assay: Inhibition of tryptase activity by monomers and multimers (Boc-Gln-Ala-Arg-AMC fluorescence). The format is biochemical. To be noted: monomers against tryptase, Table 5; read-out: Monomer IC50 range. On the procedure: Stock solutions of recominbant human tryptase, beta, from lung (Promega: catalog number G5631, or Enzo Life Sciences: catalog number BML-SE418) were made at 30 μM, in solution with 5 μM heparin sulfate and 1 M NaCl. Monomer tryptase inhibitor stock solutions were made at 50 mM in DMSO. Test substance plates were made at 1.2× the final concentration in assay buffer (50 mM HEPES, 150 mM NaCl, 100 μM EDTA, pH 7.4, 0.02% Tween-20). A final concentration of 1 nM tryptase was used. When required, test substances were diluted in water immediately before use in 10-fold serial dilutions. After the indicated incubation time, the test subtance-tryptase solution at 1.2× concentration, was diluted into assay buffer containing a final concentration of 200 μM N-tert-butoxycarbonyl-Gln-Ala-Arg-AMC HBr [AMC=7-amino-4-methylcoumarin] (Boc-Gln-Ala-Arg-AMC; Enzo Life Sciences: catalog number BML-P237) to a final volume of 50 μl in black opaque round bottom 96 well plates (Corning, catalog number 3792). The release of fluorescent AMC was immediately measured every 30 seconds over 15-30 minutes at an excitation wavelength of 367 nm, monitoring emission at 468 nm on a Spectramax M5 (Molecular Devices) microplate reader. The Softmax Pro (Molecular Devices) and Graphpad prism software were used to determine Vmax, and concentration-response curve IC50s, respectively.
By IC50 is commonly meant the concentration needed to halve the response being measured. In the case of `NCc1ccc(C(=O)NCc2ccc(OCC(=O)N3C[C@H](O)[C@@H](O)C3)cc2)cc1` [CF1, 4-(aminomethyl)-N-(4-(2-((3S,4S)-3,4-dihydroxypyrrolidin-1-yl)-2-oxoethoxy)benzyl)benzamide hydrochloride], the IC50 was in the range of 10 to 65 µM.

For `NCc1cccc(C2CCN(C(=O)c3ccc(Cl)c(Cl)c3)CC2)c1` [CF5, (4-(3-(aminomethyl)phenyl)piperidin-1-yl)(3,4-dichlorophenyl)methanone], the IC50 lay within 0.0001 to 1 µM.

As to `NCc1ccc(C(=O)NCc2ccc(OCC(=O)N3C[C@@H](O)[C@H](O)C3)cc2)cc1` [CF6, 4-(aminomethyl)-N-(4-(2-((3R,4R)-3,4-dihydroxypyrrolidin-1-yl)-2-oxoethoxy)benzyl)benzamide hydrochloride], the IC50 lay within 10 to 65 µM.

Consider `NCc1ccc(C(=O)NCc2ccc(OCC(=O)N3CC(=O)[C@H](O)C3)cc2)cc1` [CF7, (R)-4-(aminomethyl)-N-(4-(2-(3-hydroxy-4-oxopyrrolidin-1-yl)-2-oxoethoxy)benzyl)benzamide hydrochloride], for which the concentration for half-maximal inhibition (IC50) was 1 to 10 µM.

Take `NCc1ccc(C(=O)NCc2ccc(OCCC(=O)N3CC(=O)[C@@H](O)C3)cc2)cc1` [CF10, (S)-4-(aminomethyl)-N-(4-(3-(3-hydroxy-4-oxopyrrolidin-1-yl)-3-oxopropoxy)benzyl)benzamide hydrochloride]: the IC50 lay within 10 to 65 µM.

Regarding `NCc1ccc(C(=O)NCc2ccc(OCCC(=O)N3CC(=O)[C@H](O)C3)cc2)cc1` [CF12, (R)-4-(aminomethyl)-N-(4-(3-(3-hydroxy-4-oxopyrrolidin-1-yl)-3-oxopropoxy)benzyl)benzamide hydrochloride], the IC50 was in the range of 1 to 10 µM.

With `NCc1ccc(CNC(=O)N2CCN(C(=O)CNC(=O)C(O)CO)CC2)cc1` (centres unmarked) [CF13, N-(4-(aminomethyl)benzyl)-4-(2-(2,3-dihydroxypropanamido)acetyl)piperazine-1-carboxamide hydrochloride], the IC50 lay in the range of 1 to 10 µM.

`NCc1ccc2c(c1)C1(CCN(C(=O)c3ccc(OCC(O)CO)cc3)CC1)CO2` (centres unmarked) [CF15, (5-(aminomethyl)-2H-spiro[benzofuran-3,4′-piperidine]-1′-yl)(4-(2,3-dihydroxypropoxy)phenyl)methanone hydrochloride]: the IC50 fell in the range of 1 to 10 µM.

As for `NCc1cccc(C2CCN(C(=O)c3cccc(NC(=O)NCC(O)C(F)(F)F)c3)CC2)c1` (centres unmarked) [CF17, 1-(3-(4-(3-(aminomethyl)phenyl)piperidine-1-carbonyl)phenyl)-3-(3,3,3-trifluoro-2-hydroxypropyl)urea hydrochloride], the IC50 lay within 0.0001 to 1 µM.

Regarding `NCc1ccc(CNC(=O)N2CCN(C(=O)CNC(=O)C(=O)CO)CC2)cc1` [CF20, N-(4-(aminomethyl)benzyl)-4-(2-(3-hydroxy-2-oxopropanamido)acetyl)piperazine-1-carboxamide], the IC50 was in the range of 0.0001 to 1 µM.

As for `NCc1ccc2c(c1)C1(CCN(C(=O)c3ccc(O)c(O)c3)CC1)CO2` [T2SPIRO, (5-(aminomethyl)-2H-spiro[benzofuran-3,4′-piperidine]-1′-yl)(3,4-dihydroxyphenyl)methanone], the IC50 was 0.0001 to 1 µM.

Turning to `NCc1ccc(F)c(C2CCN(C(=O)c3cccc4ccc(B(O)O)cc34)CC2)c1` [T11F, 8-(4-(5-(aminomethyl)-2-fluorophenyl)piperidine-1-carbonyl)naphthalen-2-ylboronic acid], the concentration for half-maximal inhibition (IC50) lay in the range of 1 to 10 µM.

Take `NCc1cccc(C2CCN(C(=O)c3cccc(/C=C/B(O)O)c3)CC2)c1` [T14, (E)-3-(4-(3-(aminomethyl)phenyl)piperidine-1-carbonyl)styrylboronic acid]: the half-maximal inhibitory concentration (IC50) lay within 0.0001 to 1 µM.

For `NCc1cccc(C2CCN(C(=O)c3cccc(NC(=O)C(O)C4(O)CCC4)c3)CC2)c1` (centres unmarked) [T21 (Diol), N-(3-(4-(3-(aminomethyl)phenyl)piperidine-1-carbonyl)phenyl)-2-hydroxy-2-(1-hydroxycyclobutyl)acetamide], the concentration for half-maximal inhibition (IC50) is 0.0001 to 1 µM.

Regarding `NCc1cccc(C2CCN(C(=O)c3cccc(NC(=O)C(=O)C4(O)CCC4)c3)CC2)c1` [T21, N-(3-(4-(3-(aminomethyl)phenyl)piperidine-1-carbonyl)phenyl)-2-(1-hydroxycyclobutyl)-2-oxoacetamide], the IC50 was 0.0001 to 1 µM.

Consider `NCc1cccc(C2CCN(C(=O)c3cccc(OCC(=O)C4(O)CCC4)c3)CC2)c1` [T22, 2-(3-(4-(3-(aminomethyl)phenyl)piperidine-1-carbonyl)phenoxy)-1-(1-hydroxycyclobutyl)ethanone], for which the IC50 is 0.0001 to 1 µM.

For `NCc1cccc(C2CCN(C(=O)/C=C/c3ccc(O)c(O)c3)CC2)c1` [T24, (E)-1-(4-(3-(aminomethyl)phenyl)piperidin-1-yl)-3-(3,4-dihydroxyphenyl)prop-2-en-1-one hydrochloride], the IC50 was 1 to 10 µM.

As to `COc1cc(/C=C/C(=O)N2CCC(c3cccc(CN)c3)CC2)ccc1O` [T24MON, (E)-1-(4-(3-(aminomethyl)phenyl)piperidin-1-yl)-3-(4-hydroxy-3-methoxyphenyl)prop-2-en-1-one], the IC50 fell in the range of 1 to 10 µM.

As for `NCc1cccc(C2CCN(C(=O)/C=C\c3ccc(O)c(O)c3)CC2)c1` [T24cis, (Z)-1-(4-(3-(aminomethyl)phenyl)piperidin-1-yl)-3-(3,4-dihydroxyphenyl)prop-2-en-1-one], the IC50 is 1 to 10 µM.

The assay is the same for the next values; noted with them: monomers against tryptase, entry marked (1:10); read-out: IC50 range group of additional monomers marked (1:10).
As for `C[C@@]1(O)CN(c2cccc(C(=O)N3CCC(c4cccc(CN)c4)CC3)c2)C(=O)[C@@H]1O` [CMI9317, 1-{^3-[^4-(3-aminomethyl-phenyl)-piperidine-1-carbonyl]-phenyl}-3,4-dihydroxy-4-methyl-pyrrolidin-2-one hydrochloride], the IC50 fell in the range of 0.0001 to 1 µM.

Take `C[C@]1(O)CN(c2cccc(C(=O)N3CCC(c4cccc(CN)c4)CC3)c2)C(=O)[C@H]1O` [CMI9321, 1-{3-[4-(3-aminomethyl-phenyl)-piperidine-1-carbonyl]-phenyl}-3,4-dihydroxy-4-methyl-pyrrolidin-2-one hydrochloride]: the IC50 fell in the range of 0.0001 to 1 µM.

Staying with this assay, now noted: monomers against tryptase; read-out: IC50 range group of additional monomers (boronic acid, benzooxaborole, ligands).
Regarding `NCc1cccc(C2CCN(C(=O)c3cccc(NC(=O)C4CC5CC4C(O)C5O)c3)CC2)c1` (racemic) [T139RACEENDO, (±) endo-N-(3-(4-(3-(aminomethyl)phenyl)piperidine-1-carbonyl)phenyl)-5,6-syn-dihydroxybicyclo[2.2.1]heptane-2-carboxamide], the IC50 is 1 to 10 µM.

As for `NCc1cccc(C2CCN(C(=O)C3CC4CC3C(O)C4O)CC2)c1` (racemic) [T140RACEENDO, (±) endo (4-(3-(aminomethyl)phenyl)piperidin-1-yl)-(5,6-syn-dihydroxybicyclo[2.2.1]heptan-2-yl)methanone], the IC50 was 1 to 10 µM.

In the case of `NCc1cccc(C2CCN(C(=O)c3cccc(NC(=O)C4CC5CCC4C(O)C5O)c3)CC2)c1` (racemic) [T141ENDOANTI, (±) endo-N-(3-(4-(3-(aminomethyl)phenyl)piperidine-1-carbonyl)phenyl)-5,6-anti-dihydroxybicyclo[2.2.2]octane-2-carboxemide.], the IC50 was 0.0001 to 1 µM.

For the molecule `NCc1cccc(C2CCN(C(=O)c3cccc(NC(=O)C4CC5CCC4C(O)C5O)c3)CC2)c1` (racemic) [T141EXOANTI, (±) exo-N-(3-(4-(3-(aminomethyl)phenyl)piperidine-1-carbonyl)phenyl)-5,6-anti-dihydroxybicyclo[2.2.2]octane-2-carboxamide.], the IC50 lay in the range of 1 to 10 µM.

As for `NCc1cccc(C2CCN(C(=O)c3cccc(NC(=O)C4CC5CCC4C(O)C5O)c3)CC2)c1` (racemic) [T141EXOSYN, (±) exo-N-(3-(4-(3-(aminomethyl)phenyl)piperidine-1-carbonyl)phenyl)-5,6-syn-dihydroxybicyclo[2.2.2]octane-2-carboxamide.], the IC50 lay in the range of 1 to 10 µM.

As to `NCc1cccc(C2CCN(C(=O)C3CC4CCC3C(O)C4O)CC2)c1` (racemic) [T142ENDOANTI, (±) endo (4-(3-(aminomethyl)phenyl)piperidin-1-yl)(-5,6-anti-dihydroxybicyclo[2.2.2]octan-2-yl)methanone], the IC50 fell in the range of 0.0001 to 1 µM.

Regarding `NCc1cccc(C2CCN(C(=O)C3CC4CCC3C(O)C4O)CC2)c1` (racemic) [T142ENDOSYN, (±) endo (4-(3 (aminomethyl)phenyl)piperidin-1-yl)(-5,6-syn-dihydroxybicyclo[2.2.2]octan-2-yl)methanone], the half-inhibitory concentration (IC50) was 10 to 65 µM.

`NCc1cccc(C2CCN(C(=O)C3CC4CCC3C(O)C4O)CC2)c1` (racemic) [T142EXOANTI, (±) endo (4-(3 (aminomethyl)phenyl)piperidin-1-yl)(-5,6-anti-dihydroxybicyclo[2.2.2]octan-2-yl)methanone]: the IC50 lay within 10 to 65 µM.

For `NCc1ccc2c(c1)C1(CCN(C(=O)c3ccc(O)c(O)c3)CC1)CO2` [T2SPIRO, (5-(aminomethyl)-2H-spiro[benzofuran-3,4′-piperidine]-1′-yl)(3,4-dihydroxyphenyl)methanone], the half-maximal inhibitory concentration (IC50) lay in the range of 0.0001 to 1 µM.

Regarding `NCc1ccc(F)c(C2CCN(C(=O)c3cccc4ccc(B(O)O)cc34)CC2)c1` [T11F, 8-(4-(5-(aminomethyl)-2-fluorophenyl)piperidine-1-carbonyl)naphthalen-2-ylboronic acid], the IC50 was in the range of 1 to 10 µM.

Regarding `NCc1cccc(C2CCN(C(=O)c3cccc(NC(=O)C(O)C4(O)CCC4)c3)CC2)c1` (centres unmarked) [T21 (Diol), N-(3-(4-(3-(aminomethyl)phenyl)piperidine-1-carbonyl)phenyl)-2-hydroxy-2-(1-hydroxycyclobutyl)acetamide], the half-maximal inhibitory concentration (IC50) fell in the range of 0.0001 to 1 µM.

With `NCc1cccc(C2CCN(C(=O)/C=C/c3ccc(O)c(O)c3)CC2)c1` [T24, (E)-1-(4-(3-(aminomethyl)phenyl)piperidin-1-yl)-3-(3,4-dihydroxyphenyl)prop-2-en-1-one hydrochloride], the 50% inhibitory concentration (IC50) was in the range of 1 to 10 µM.

Regarding `NCc1cccc(C2CCN(C(=O)CCc3ccc(O)c(O)c3)CC2)c1` [T24Dihydro, 1-(4-(3-(aminomethyl)phenyl)piperidin-1-yl)-3-(3,4-dihydroxyphenyl)propan-1-one (TFA salt)], the IC50 lay within 1 to 10 µM.

On to `NCc1cccc(C2CCN(C(=O)/C=C\c3ccc(O)c(O)c3)CC2)c1` [T24cis, (Z)-1-(4-(3-(aminomethyl)phenyl)piperidin-1-yl)-3-(3,4-dihydroxyphenyl)prop-2-en-1-one], for which the IC50 was in the range of 1 to 10 µM.

The values are drawn from patent publication US11970448B2, “Monomers capable of dimerizing in an aqueous solution, and methods of using same” (CORNELL UNIVERSITY, priority 2011, dated 2024).
